Results taken from patent US20230021275A1, “Application of Nanosulfur in Tomato Fusarium Wilt Control” (Jiangnan University, priority 2021, published 2023).

Experiments:
[1] = tested on: Fusarium oxysporum f sp. Lycopersici; assay: Foliar application to tomatoes grown in infected soil (tomato fusarium wilt control); format: in vivo; conditions: foliar spraying 100 mg/L; for Fresh weight of above-ground part / Fresh weight of underground part / Incidence: 10 mL/plant, 6th and 8th week, 10th week
From the text: There were 5 levels of disease severity of tomatoes: 0: symptomless; 1: mildly stunted; 2: stunted; 3: leaves wilted and yellowed; and 4: dead. […] The highest disease severity level of tomatoes was Level 4. The total number of tomato plants in the treated group was 6. Test of biomass of above-ground part and underground part: Tomatoes were sampled destructively. The above-ground part and the underground part of the tomato were washed with ultrapure water three times. The above-ground part and the underground part of the tomato were dried up with filter paper. The above-ground part and the underground part were weighed using a balance. The obtained weights were respectively the biomass of the above-ground part and the underground part of the tomato. (1) Pathogenic bacteria (Fusarium oxysporum f sp. Lycopersici, the pathogen of tomato fusarium wilt) were added to dry soil at a concentration of 1×10^6 spores/g to obtain infected soil. (2) Tomato seeds were sowed in the infected soil. […] The cultivation was continued. In the meanwhile, tomato seeds were sowed in soil not infected with pathogenic bacteria, and cultivated normally with no sulfur solution applied, to obtain a healthy group. The cultivation of the tomatoes was continued until the 10th week. The tomatoes were examined for the disease severity. The tomatoes were sampled destructively. The fresh weights of the above-ground part and the underground part of the tomatoes were measured. The test results are as follows: (1) Pathogenic bacteria (F. oxysporum, the pathogen of tomato fusarium wilt) were added to dry soil at a concentration of 1×10^6 spores/g to obtain infected soil. (2) Tomato seeds were sowed in the infected soil. […] The cultivation was continued. In the meanwhile, tomato plants with no fertilizer applied were taken as the foliar disease group. When the tomatoes grew to the 10th week, the tomatoes were examined for the disease severity. The tomatoes were sampled destructively. The fresh weights of the above-ground part and the underground part of the tomatoes were measured.

F. oxysporum = assay: Growth of pathogen colonies on PDA plates; format: cell-based; conditions: 100 mg/L
From the text: This may be because the nanosulfur could induce the systemic acquired resistance of plants and the control effect of the nanosulfur on the tomato fusarium wilt was better than the direct bactericidal effect thereof.

Compound | Effect on fresh weights of above-ground and underground part (biomass) compared with the disease group [1] | Effect on the incidence of tomato fusarium wilt compared with the disease group [1] | Fresh weight of above-ground part [1] | Fresh weight of underground part [1] [b g] | Incidence [1] | Antibacterial effect relative to that of the 30-SNPs (F. oxysporum; 6 days) [times] | Reduction of the diameter of the pathogenic bacteria colonies (F. oxysporum; 6 days of exposure, compared with the foliar disease group) [%]
Cc1cc(O)no1 [Hymexazol, hymexazol] | significantly increased | significantly reduced | 6.9 ± 0.9c g | 1.8 ± 0.5 | 0.42 ± 0.08cd | 3.05 | 34.5
O=S(=O)([O-])[O-].[Na+].[Na+] [Sodium sulfate, sodium sulfate] | no significant effects |  | 5.5 ± 0.7 g·days | 1.7 ± 0.2 | 0.64 ± 0.10a |  | 
